Tests used:
[1] = tested on: rat model of MI/AR injury (myocardial ischemia-reperfusion injury); experiment: Rat model of MI/AR injury (LCA ligation, myocardial ischemia-reperfusion); format: in vivo; details: for MI/AR Reduction (%): male Sprague-Dawley rats, compound given 15 minutes prior to ligation, intravenous, doses ranged 1-20 mg/kg, 24 hours after reperfusion, relative to vehicle controls; for Reduction in Cardiac injury: LCA rat model, procedure of Example 2
Excerpt: A rat model of MI/AR injury was used as an in vivo screen to determine if the compounds of Tables 1-5 were cardio-protective (e.g., against myocardial ischemia-reperfusion injury). This model is analogous to the ischemia-reperfusion injury observed in cardiac patients following coronary occlusions and cardiac surgery procedures, such as coronary artery bypass grafting (CABG) (Matsui, T., Tao, J., del Monte, F., Lee, K.-H. et al., Akt Activation Preserves Cardiac Function and Prevents Injury After Transient Cardiac Ischemia In vivo, Circulation 2001, 104:330, the teachings of which are incorporated herein by reference in their entirety).
The circumflex branch of the left coronary artery (LCA) was ligated temporarily to induce regional ischemia in the left ventricular mass, followed by the injection of fluorescent microspheres to delineate the ischemic region. 15 minutes prior to ligation (pre-occlusion, pre-ischemic episode), a compound from Tables 1-5 was administered to the animals. Doses of the compounds listed in Tables 1-5 ranged from 1-20 mg/kg. The animals were sacrificed about 24 hours after reperfusion and the hearts were excised, sectioned and stained with triphenyltetrazolium. The direct impact of the pharmacologic intervention was determined by measuring the myocardial infarct area (MI), the ischemic area at risk (AR) and the left ventricular area (LV). The reduction of MI over the AR (MI/AR ratio) was used as the primary measure of drug efficacy relative to vehicle controls.
Male Sprague-Dawley rats between 300 and 350 g were used for these experiments. Anesthesia was induced with 3-4% isoflurane in an induction chamber. After induction, anesthesia was maintained at a surgical plane with 1.5-2.0% isoflurane, administered by a Rodent Ventilator through a 16-gauge angiocatheter introduced orally into the trachea. The ventilator was set at 2.5 cc at a rate of 60-65 breaths per minute to maintain ventilation during surgery. The core temperature of the animal was monitored and maintained at 37° C. using a rectal probe and a heating lamp attached to a temperature controller.
A left anterior thoracotomy was performed and the heart was exposed using a vertical pericardotomy. The circumflex branch of the left coronary artery (LCx) was ligated approximately 4 mm from the aorta using a cardiovascular 7.0 monofilament suture on an 11 mm needle to induce ischemia in the left ventricle.
Fluorescent microspheres (300 μL) were injected into the left ventricular cavity 10-20 minutes after the ligation to delineate the ischemic area. The suture was removed 30 minutes after ligation to reperfuse the ischemic area and the ischemic area was checked for reperfusion.
The chest was then closed in layers using absorbable suture (Dexon 5-0) for the muscle layers and monofilament Nylon 5-0 suture was used to close the cutaneous layer. The animals were allowed to recover, then were returned to the colony.
Twenty-four hours after reperfusion, anesthesia was induced using ketamine hydrochloride and the chest was opened. The animals were sacrificed with 15% potassium chloride aqueous solution (w/v) injected into the LV cavity to arrest the heart in diastole. The heart was excised distal to the aortic valve and washed with saline to remove the blood. Sagittal slices of the heart were obtained between the base of the ventricle and the apex. Five slices of heart tissue were obtained, each 2 mm thick. The slices were immersed in a 1% 2,3,5-triphenyl-2H-tetrazolium chloride (TTC) in saline solution and then stored in the dark for 30 minutes to stain.
Images of the slices were obtained under bright field (to observe the TTC staining) and under fluorescence (to observe the microspheres). The area at risk was determined by the absence of microspheres and the infarct area was determined by the absence of TTC staining.

[2] = tested on: PAC rat model of ischemia-induced renal injury; experiment: Partial aortic clamping (PAC) rat model of ischemia-induced renal injury; format: in vivo; details: for Reduction of SCr vs. control: serum creatinine 24 hours post-surgery; for serum creatinine concentrations relative to the control animals (in words): administered intravenously
Excerpt: A partial aortic clamping (PAC) rat model of ischemia-induced renal injury was used as an in vivo screen to determine if RLip-EA-OH (Entry 1), RLip-Cya-OH (Entry 10), RLip-Tau (Entry 13), and RLip-aminoethylphosphonic acid (Entry 15) were renal-protective (e.g., against renal ischemia-reperfusion injury). This model simulates ischemia-reperfusion injury observed in renal patients following ischemia-induced renal failure (Molitoris, B. A., Dagher, P. C., Sandoval, R. M., Campos, S. B., Ashush, H., Fridman, E., Brafman, A. Faerman, A., Atkinson, S. J., Thompson, J. D., Kalinski, H., Skaliter, R., Erlich, S., Feinstein, E. “siRNA Targeted to p53 Attenuates Ischemic and Cisplatin-Induced Acute Kidney Injury.” J Am Soc Nephrol, 2009, vol. 20, 1754-1764, the teachings of which are incorporated herein by reference to their entirety). Serum creatinine concentrations (SCr) typically rise due to renal ischemia and effective treatment should show a reduction in serum creatinine concentrations.
The abdominal aorta just below the renal arteries was isolated and temporarily ligated to induce regional ischemia using an aortic clamp. An initial blood sample was drawn at study initiation for baseline creatinine measurement and at 24 hours post-surgery for functional evaluation of the severity of kidney injury. The animals were sacrificed about 24 hours after reperfusion.
Male Sprague-Dawley rats between 200 to 250 g were used for these experiments. Anesthesia was induced with 5% halothane and maintained with 1-1.5% halothane in oxygen-enriched air via a face mask. The rats were maintained on a warming blanket throughout the procedure to maintain body temperature at 37° C. After shaving the abdomen of the rat, a midline incision was made through the skin and musculature to expose the abdominal cavity to quantify the aortic blood flow (ABF).
Aortic clamps comprised of two 4-mm in length polyethylene tubes (PE-100, 0.86-mm diameter) were then placed around the aorta to induce renal ischemia. One clamp was placed around the aorta and the other was placed to exert variable tension via a 10-in. 3.0 silk suture. The silk thread was then tied and the tension on the two ends of the thread increased until there was a 90% reduction of initial (ABF) rate measured on the ultrasonic probe reader. A 10% baseline blood flow was maintained for a period of 30 minutes.
RLip-EA-OH (Entry 1) at 10 mg/kg; RLip-Cya-OH (Entry 10) at 3 mg/kg; RLip-Tau (Entry 13) at 3 mg/kg; and RLip-aminoethylphosphonic acid at 10 mg/kg, 3 mg/kg, and 1 mg/kg were administered intravenously via the femoral vein as a bolus dose 15 minutes prior to ischemia. A 0.15-mL venous blood sample was drawn at study initiation for baseline creatinine measurement and at 24 hours postsurgery for functional evaluation of the severity of kidney injury. Serum creatinine concentrations were then measured on a Creatinine Analyzer 2. The efficacy of RLip-EA-OH and RLip-Tau were measured against the results of vehicle-treated animals in the blinded studies. A 2-tail t-test was used to determine differences between treatments.

[3] = 3 mg/kg iv bolus 15 minutes prior to ischemia
[4] = 10 mg/kg iv bolus 15 minutes prior to ischemia

| Structure (SMILES) | MI/AR Reduction (%) [1] | further results |
| --- | --- | --- |
| O=C(O)CCC(NC(=O)CCCCC1CCSS1)C(=O)O [Entry 9, N-(R)-lipoyl-L-glutamic acid] | 33% | – |
| O=C(CCCCC1CCSS1)NC(Cc1ccc(O)cc1)C(=O)O [Entry 8, N-(R)-lipoyl-L-tyrosine] | 29% | – |
| O=C(CCCCC1CCSS1)NCCOP(=O)(O)O [Entry 16, N-(R)-lipoyl-aminoethyl dihydrogenphosphate] | 47% | – |
| O=C(CCCC[C@@H]1CCSS1)Nc1ccc(C(=O)O)cc1 [Entry 17, N-(R)-lipoyl-para-aminobenzoic acid] | 22% | – |
| O=C(CCCC[C@@H]1CCSS1)NCCS(=O)(=O)O [Entry 13, N-(R)-lipoyl-taurine] | – | Reduction of SCr vs. control [2, 3]: 39.5%; serum creatinine concentrations relative to the control animals (in words) [2]: effectively reduced serum creatinine concentrations; Reduction in Cardiac injury ([1]; dose group 3 mg/kg): 50% |
| O=C(CCCCC1CCSS1)NC(Cc1ccc(C(=O)O)cc1)C(=O)O [Entry 6, N-(R)-lipoyl-L-4-carboxyphenylalanine] | 26% | – |
| CC(NC(=O)CCCCC1CCSS1)C(=O)NC(CCC(=O)O)C(=O)O [Entry 5, N-(R)-lipoyl-L-alanyl-L-glutamic acid] | 24% | – |
| O=C(CCCCC1CCSS1)NCCOS(=O)(=O)O [Entry 14, N-(R)-lipoyl-aminoethyl hydrogensulfate] | 30% | – |
| O=C(O)CNC(=O)C(CC(=O)O)NC(=O)CCCCC1CCSS1 [Entry 2, N-lipoyl-L-aspartylglycine] | 28% | – |
| O=C(O)CCC(NC(=O)CCCCC1CCSS1)C(=O)NCCS(=O)(=O)O [Entry 4, N-(R)-lipoyl-L-glutamyltaurine] | 33% | – |
| O=C(CCCC[C@@H]1CCSS1)Nc1ccc(S(=O)(=O)O)cc1 [Entry 19, N-(R)-lipoyl-para-aminobenzene sulfonic acid] | 44% | – |
| O=C(CCCCC1CCSS1)NC(CF)C(=O)O [Entry 7, N-(R)-lipoyl-fluoroalanine] | 10% | – |
| O=C(CCCC[C@@H]1CCSS1)NCCP(=O)(O)O [Entry 15, N-(R)-lipoyl-aminoethylphosphonic acid] | 53% | Reduction of SCr vs. control ([2]; 1 mg/kg iv bolus 15 minutes prior to ischemia): 28.6%; Reduction of SCr vs. control [2, 3]: 28.6%; Reduction of SCr vs. control [2, 4]: 76.0%; serum creatinine concentrations relative to the control animals (in words) [2]: effectively reduced serum creatinine concentrations; Reduction in Cardiac injury ([1]; dose group 1 mg/kg): 30%; Reduction in Cardiac injury ([1]; dose group 3 mg/kg): 50%; Reduction in Cardiac injury ([1]; dose group 10 mg/kg): 32% |
| O=C(O)CCNC(=O)CCCC[C@@H]1CCSS1 [Entry 12, N-(R)-lipoyl-β-alanine] | 39% | – |
| O=C(CCCC[C@@H]1CCSS1)Nc1cccc(S(=O)(=O)O)c1 [Entry 18, N-(R)-lipoyl-meta-aminobenzene sulfonic acid] | 33% | – |
| CC(NC(=O)C(CCC(=O)O)NC(=O)CCCCC1CCSS1)C(=O)O [Entry 1, N-(R)-lipoyl-L-glutamyl-L-alanine] | 31% | Reduction of SCr vs. control [2, 4]: 39.5%; serum creatinine concentrations relative to the control animals (in words) [2]: effectively reduced serum creatinine concentrations; Reduction in Cardiac injury ([1]; dose group 10 mg/kg): 33% |
| O=C(O)CN(CC(=O)O)C(=O)CCCC[C@@H]1CCSS1 [Entry 11, N-(R)-lipoyliminodiacetic acid] | 21% | – |
| CC(NC(=O)C(Cc1ccc(O)cc1)NC(=O)CCCCC1CCSS1)C(=O)O [Entry 3, N-(R)-lipoyl-L-tyrosinyl-L-alanine] | 31% | – |
| O=C(CCCCC1CCSS1)NC(CS(=O)(=O)O)C(=O)O [Entry 10, N-(R)-lipoyl-L-cysteic acid] | 30% | Reduction of SCr vs. control [2, 3]: 39.5%; serum creatinine concentrations relative to the control animals (in words) [2]: effectively reduced serum creatinine concentrations; Reduction in Cardiac injury ([1]; dose group 3 mg/kg): 30% |

Source: US8815937B2, “Lipoyl compounds and their use for treating ischemic injury” (Ischemix LLC, priority 2010, dated 2014)
